System: laccase (NS51003, Novozymes A/S, Denmark)
Test: Delignification of a softwood Kraft pulp using a laccase-mediator system (change in Kappa number, TAPPI T236 cm-85)
Format: biochemical
Settings: for Kappa # (Mediator): pH 5.5
Procedure: Delignification of a Softwood Kraft Pulp Using a Laccase-Mediator System in the Presence of a Mediator
In the following example, a softwood Kraft pulp was delignified using a laccase-mediator system. The Kraft process is well known to those skilled in the art and is described, for example, by Swen A. Rydholm in “Pulping Process”, Interscience Publishers, New York, N.Y. (1965), p. 576.
A softwood Kraft pulp, Kappa number 31.0, was treated with a laccase (NS51003, Novozymes A/S, Denmark) under the following conditions:
The dried pulp was added to 80 ml of 50 mM phosphate, pH 5.5, and disintegrated in a blender. The pulp was then transferred to a 500 ml conical flask, and the blender was washed with 20 ml of the same buffer. The washed buffer and the pulp were combined. The mediator was added at 1-4% (w/w, based on the dry pulp) (Dosage) followed by the addition of the laccase. The pH of the pulp mixture was adjusted to 5.5 if needed. The flask was covered with an aluminum foil with holes punched through and incubated at 50° C. for 16 hrs on a rotary shaker at 200 rpm.
After the enzymatic treatment, the pulp mixture was filtered through a Buchner funnel and the pulp was washed with water. The pulp from the control experiment was treated at the same pH and temperature as described above in the absence of mediators.
The washed pulp was then treated with an alkaline solution under the following conditions:
The filtered pulp was repulped in the alkaline solution and incubated at 70° C. for 3 hrs. The pH of the pulp mixture should be between 11.7-12.00 during the entire treatment. After the treatment, the pulp mixture was filtered through a Buchner funnel, and the pulp was washed with water extensively, and then dried in a hood overnight.
The delignification of the pulp was measured as the change in Kappa number according to TAPPI method T236 cm−85. Briefly, a known mass of paper pulp (containing lignin) was reacted with an excess of potassium permanganate in acid solution for a specified period of time to oxidize the lignin. After the reaction, the residual permanganate was determined by titration. The Kappa number was defined as the volume (ml) of 0.1N potassium permanganate consumed by 1 g of moisture-free pulp in 0.5N sulfuric acid after a ten minute reaction time at 25° C. under conditions such that one-half of the permanganate remained unreacted. A linear relationship with the lignin content of the pulp and the measurement of the Kappa number had already been done on samples as low as 300 mg of pulp.

| SMILES | Δ Kappa # | Kappa # (Mediator) |
| --- | --- | --- |
| C(=NCc1ccccc1)c1ccccc1 [N-Benzylidene-benzylamine] | −0.3 | 28.3 |
| Oc1ccccc1 [Phenol] | −1.1 | 25.0 |
| CN(C)C(=S)[S-].O.[Na+] [Sodium dimethyldithio carbonate hydrate] | −0.7 | 28.6 |
| Cc1ccc2nc(-c3ccc(N=NNc4ccc(-c5nc6ccc(C)c(S(=O)(=O)[O-])c6s5)cc4)cc3)sc2c1S(=O)(=O)[O-].[Na+].[Na+] [Thiazol Yellow G] | −3.0 | 21.9 |

— patent US20030089472A1, “Laccase activity enhancers for pulp bleaching” (priority 2001, published 2003)
